US6888015B2, “Sphingolipid synthesis inhibitor” (Japan Science and Technology Agency, priority 2001, dated 2005)

Key:
SM synthase = SM synthase enzyme assay, CHO membrane fraction; assay type: biochemical, Chinese hamster
[1] = system: biosynthesis of phosphatidylcholine; test: Metabolic labeling of lipids with [14C]choline; assay type: cell-based, Chinese hamster; settings: 1 μM, 33° C., 4 hours
Method: CHO cells are seeded at the density of 1.0×10^6 cell in 5 mL of F12 medium containing 10% NBS, by per 60-mm dish, and cultured at 33° C. overnight. Then, the medium is changed to 1.5 mL of Nutridoma medium if necessary, various drugs are added and incubated at 4° C. for 15 minutes. Then, after addition of [^14C] serine (0.75 μCi) or [^14 C] choline (1.0 μCi) to the medium, cells were incubated at 33° C. for various periods of time.
Cells are washed twice with 2 mL of cold phosphate-buffered saline (PBS), and lysed with 900 μL of 0.1% sodium dodecyl sulfate (SDS). Then, 800 μL and 20 μL of lysate are used for lipid extraction and determination of protein concentration, respectively.
For the analysis of the lipid labeled by [^14C] choline, the lipid is separated by one-dimensional TLC using chloroform/methanol/acetic acid/H2O (25:15:4:2, volume ratio) as a developing solvent. […]
Radioactive lipid separated on the TLC plates are detected with image analyzer depicted above. After the collection of gels from TLC plates by scraping, the radioactivity of each lipid is determined by liquid scintillation counting and normalized to the protein concentration of cells.

[2] = system: sphingosine N-acyl transferase; test: Sphingosine N-acyl transferase activity, CHO membrane fraction; assay type: biochemical, Chinese hamster; settings: 20 μM; data not shown
Method: (§1) Membrane fraction prepared from CHO cells is used as an enzyme source.
Serine palmitoyltransferase activity is determined by the method disclosed in Document 7, and sphingosine N-acyl transferase activity is determined by a modification of the method disclosed in Document 7.

[3] = system: transport of Cer from the ER to the Golgi apparatus; test: Intracellular redistribution and metabolism of C5-DMB-Cer; assay type: cell-based, Chinese hamster
Method: After CHO cells seeded in 60-mm dishes are cultured overnight, said CHO cells are labeled with 1 μM C5-DMB-Cer in 1.5 mL of Nutridoma medium at 4° C. for 30 minutes. Then, after obtained said cells are washed 3 times with F12 medium, said cells are incubated in Nutridoma medium in the presence or absence of 2.5 μM HPA-12 for 15 minutes at 4° C., and then further incubated at 33° C. for various periods of time.
After washed with PBS, the chased cells are lysed with 0.1% SDS as mentioned above. The lipids extracted from cell lysate are separated by high performance TLC with a solvent of chloroform/methanol/H2O (volume ratio, 65:25:4). Quantitative measurement of C5-DMB-SM and C5-DMB-Cer are performed by scraping gel from TLC plates, extracting by chloroform/methanol/H2O (volume ratio, 1:2:0.8), and by measuring DMB fluorescence (excitation wave length 480 nm, emission wave length 515 nm) of the extracted product.
After CHO cells grown on the glass coverslip (22-mm diameter) in 35 mm dishes are incubated in F12 medium containing 1 μM C5-DMB-Cer at 4[…] for 30 minutes for pulse label, washed three times with 1 mL of F12 medium, and incubated in 1 mL of Nutridoma medium in the presence or absence of 2.5 μM HPA-12 at 4° C. for 15 minutes. Then, the pulse-labeled cells are incubated at 33° C. for 15 minutes for chase, washed with PBS containing 0.125% glutaraldehyde at 4° C. for 5 minutes. […]

[4] = system: SM synthesis in BFA-treated cells; test: [14C]serine labeling in BFA-treated cells (ER and Golgi merged); assay type: cell-based, Chinese hamster; settings: 1 μM; cells treated with 1 μg/mL BFA (FIG. 5)
Method: For the metabolic labeling by [^14C] serine in BFA-treated cells, the cells are preincubated with 1 μg/mL BFA in Nutridoma medium at 33° C. for 30 minutes, then, treated with or without 1 μM HPA-12 in the presence of 1 μg/mL BFA at 4° C. for 15 minutes prior to addition of [^14C] serine.

GlcCer synthase = target: T1, GlcCer synthase (Cricetulus griseus, UniProt A0A9J7CH29); test: GlcCer synthase enzyme assay, CHO membrane fraction; assay type: biochemical, Chinese hamster; settings: 20 μM; substrate C6-NBD-Cer
T1 construct: Membrane fraction prepared from CHO cells is used as an enzyme source; endogenous in cells; host or cells: CHO cells, membrane fraction
T1 sequence (A0A9J7CH29 1-394): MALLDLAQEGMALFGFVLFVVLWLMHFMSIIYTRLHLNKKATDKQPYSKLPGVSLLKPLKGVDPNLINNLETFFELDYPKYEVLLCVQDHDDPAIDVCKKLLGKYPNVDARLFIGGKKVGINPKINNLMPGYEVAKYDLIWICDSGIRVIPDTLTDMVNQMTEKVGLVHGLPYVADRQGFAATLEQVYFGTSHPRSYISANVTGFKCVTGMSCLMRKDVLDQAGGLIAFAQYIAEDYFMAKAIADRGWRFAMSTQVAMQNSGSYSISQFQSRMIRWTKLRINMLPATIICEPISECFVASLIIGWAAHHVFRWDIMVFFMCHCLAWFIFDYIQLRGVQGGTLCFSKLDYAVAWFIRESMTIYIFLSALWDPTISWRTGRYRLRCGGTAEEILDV
Method: as §1
Enzyme assays of SM synthesis and GlcCer synthase are carried out by using C6-NBD-Cer as a substrate as disclosed in Document 6.

SMILES: CCCCCCCCCCCC(=O)NC(CO)CC(O)c1ccccc1 (centres unmarked) [HPA-12, N-(3-hydroxy-1-hydroxymethyl-3-phenylprol)dodecaneamide]
- C6-NBD-SM formed (SM synthase activity) (SM synthase; 20 μM, substrate C6-NBD-Cer): 168.1 ± 1.7 pmol/mg protein/10 minutes
- inhibition of SM synthase (SM synthase; 20 μM, substrate C6-NBD-Cer): Neither of SM synthase nor GlcCer synthase is inhibited
- inhibition of SM synthase activity (SM synthase; substrate C5-DMB-Cer, data not shown): not observed
- level of [14C]PC vs untreated cells [1]: almost equal
- level of [14C]SM vs drug-untreated control level [1]: about half
- activity of sphingosine N-acyl transferase [2]: does not affect
- accumulation of DMB-fluorescence to the perinuclear Golgi region vs untreated control ([3]; 2.5 μM, chase at 33° C. for 15 minutes): clearly lower
- inhibition of conversion of C5-DMB-Cer to C5-DMB-SM ([3]; HPA-12 treated cells, data not shown): 50%
- formation of [14C]serine-derived SM [4]: no longer inhibits
- C6-NBD-GlcCer formed (GlcCer synthase activity) (GlcCer synthase): 325.9 ± 17.1 pmol/mg protein/10 minutes
- inhibition of GlcCer synthase (GlcCer synthase): Neither of SM synthase nor GlcCer synthase is inhibited
